Assay [1] relates to non-NMDA receptor for kainate. In words: kainate-mediated current in dissociated hippocampal neurons (control experiment). The format is cell-based, rat. Particulars: 10 uM CNQX, 20 uM kainate.
The test system of assay [2] is NMDA receptor. The conditions noted are these: cited from earlier work; for effect on responses produced by NMDA: literature reports (Honore et al., Blake et al., Fletcher, Dryer et al.).
The target in assay [3] is glycine binding site (NMDA receptor). In words: 3-H-glycine binding to frontal cortex membranes. The conditions noted are these: 4 nM 3-H-glycine, washed guinea pig frontal cortex membranes, 30 min on ice; read-out: IC50 for displacement of glycine.
Assay [4] concerns non-NMDA receptors. Particulars: U.S. Pat. No. 4,812,458; cited from earlier work.
For assay [5], the system named is NMDA receptor. In words: NMDA receptor-mediated currents, whole cell patch recordings in dissociated hippocampal neurons. Particulars: for effect on NMDA receptor-mediated current: 30 uM NMDA. The format is cell-based, rat.

Each structure is given as a SMILES string.

What is called IC50 is the concentration that gives 50% inhibition.

For `N#Cc1cc2[nH]c(=O)c(=O)[nH]c2cc1[N+](=O)[O-]` [CNQX, 6-cyano-7-nitroquinoxaline 2,3-dione], the “effect on kainate-mediated current” value in assay [1] (1 uM glycine) is listed as “complete suppression”. In addition, the “effect of glycine on suppression of kainate-mediated current” value in assay [1] (glycine 1000 uM) was “no effect on this suppression”. For the same molecule, in assay [2], the “effect on responses produced by NMDA” value is “little or no effect”. For the same molecule, the IC50 in assay [3] came out at 5.7 µM. Moreover, the “effect on excitation of spinal cord neurons induced by stimulation of non-NMDA receptors” value in assay [4] is “depress the excitation”. Moreover, the “effect on NMDA receptor-mediated current” value in assay [5] (10 uM CNQX, 1 uM glycine (FIG. 2A)) was “suppresses the response”; in assay [5] (10 uM CNQX, 100 uM glycine) it was “substantially no effect”; in assay [5] (30 uM CNQX, 200 uM glycine, reversed by 500 uM NMDA (FIG. 2B)), “relatively low suppression”. For the same molecule, in assay [5] (currents recorded at +40 mv and -40 mV), the “dependence of CNQX effects on membrane potential” value is given as “not dependent on membrane potential”. The “glycine potentiation of NMDA receptor-mediated currents” value in assay [5] (varying glycine, 10 uM or 30 uM CNQX (FIG. 1)) was “complete potentiation is not achieved”.

Regarding `O=c1[nH]c2cc([N+](=O)[O-])c([N+](=O)[O-])cc2[nH]c1=O` [DNQX, 6,7-dinitro-quinoxaline-2,3-dione], the “effect on NMDA concentration response curve” value in assay [2] (Birch et al. 1988) is on record as “shift to the right”. The “effect on maximal response to NMDA” value in assay [2] (high antagonist concentrations, Birch et al. 1988) was “decrease in maximal response”. Also, in assay [2], the “effect on responses produced by NMDA” value is listed as “little or no effect”. For the same molecule, the “effect on excitation of spinal cord neurons induced by stimulation of non-NMDA receptors” value in assay [4] was “depress the excitation”.

The values above are taken from patent US4975430A, “CNQX and its analogs as therapeutics for degenerative neural diseases” (The State of Oregon Acting by and Through The State Board …, priority 1989, dated 1990).
